Experimental data taken from patent US20080004266A1, “Method for treating proliferative disorders associated with protooncogene products” (priority 2006, published 2008).
“And” between values parts separate entries of the source, which are not always exact repeats. Equal values may be shown once.

What was measured:
[1] = system: A375 cells (B-raf V600E); experiment: Cell survival in A375 melanoma cells (Cell Counting Kit-8); type: cell-based, human; conditions: Homo sapiens, A-375, 72 hours
Experimental: Human melanoma cell line, A375 (2×10^6 cells), which contains the V600E mutation in the B-raf protein that confers constitutive […] kinase activity, was obtained from American Type Culture Collection. A375 cells (20,000 cells/well) were cultured in 96-well plates and maintained at 37° C. for several hours. The cells were incubated at 37° C. for 72 hours with various concentrations of compound 226, 17AAG or 17DMAG. 17AAG and 17DMAG are Hsp90 inhibitors that are currently in clinical trials and are used here as positive controls for Hsp90 inhibition. Cell survival was measured with Cell Counting Kit-8 (Dojindo Laboratories, Cat # CK04).

[2] = system: Kasumi-1 cells (c-Kit N822K); experiment: Cell survival in Kasumi-1 cells (Cell Counting Kit-8); type: cell-based, human; conditions: Homo sapiens, 72 hours
Experimental: (§1) Kasumi-1 cells (20,000 cells/well) were cultured in 96-well plates and maintained at 37° C. for several hours. […] 17AAG and DMAG are Hsp90 inhibitors that are currently in clinical trials and are used here as positive controls for Hsp90 inhibition. […] Cell survival was measured with Cell Counting Kit-8 (Dojindo Laboratories, Cat # CK04).

[3] = system: P815 cells (c-Kit D814Y); experiment: Cell survival in mouse mastacytoma cell line P815 (Cell Counting Kit-8); type: cell-based; conditions: 72 hours
Experimental: as §1, with “Mouse mastacytoma cell line P815 was obtained from the American Type Culture Collection (ATCC; Manassas, Va., USA). […] P815” for “Kasumi-1”, “17DMAG” for “DMAG”

[4] = system: human malignant melanoma tumor cell line A-375; experiment: A-375 (B-raf V600E) nude mouse xenograft model; type: in vivo, human (xenograft in nude mouse); conditions: 50 mg/kg i.v. 3 times per week
Text: The human malignant melanoma cell line, A-375 (ATCC #CRL-1619), was obtained from the American Type Culture Collection (ATCC; Manassas, Va., USA). Growth of this tumor cell line is dependent upon the expression of an activated form of the B-RAF serine/threonine kinase carrying a V600E mutation (K. P. Hoeflich et al., Cancer Res. 66:999-1006, 2006; D. J. Panka et al., Cancer Res. 66:1611-1619, 2006). This is the most frequent genetic abnormality observed in melanoma (N. Dhomen and R. Marais, Curr. Opin. Genet. Dev. 17:31-39, 2007). The cells were cultured in growth media prepared with Dulbecco's Modified Eagle Medium (high glucose), 10% fetal bovine serum (FBS), 1% 100× Penicillin-Streptomycin, 1% 10× sodium pyruvate and 1% 10×MEM non-essential amino acids. FBS was obtained from ATCC and all other reagents were obtained from Invitrogen Corp. (Carlsbad, Calif., USA). […] The supernatant was aspirated and the cell pellet was resuspended in 10 mL of growth media and the cell number determined using a hemocytometer. […]
Tumors were then permitted to develop in vivo until the majority reached 90-160 mm^3 in tumor volume, which required 5-6 weeks following implantation. […] Tumor volumes (V) were calculated by caliper measurement of the width (W), length (L) and thickness (T) of tumors using the following formula: V=0.5236×(L×W×T). […]

[5] = system: EGFR (T790M and L858R mutations); experiment: Degradation of EGFR in NCI-H1975 cells (Western blot); type: cell-based, human; conditions: 18 hours, 1.0 μM, 0.5 μM and 0.1 μM
Experimental: Non-small cell lung cancer cell line, NCI-H1975 (2×10^6 cells), which harbors both the T790M and the L858R mutations in EGFR and is resistant to erlotinib, was obtained from American Type Culture Collection and was treated with either Compound 226 (1.0 μM, 0.5 μM and 0.1 μM) or 17-AAG (1.0 μM, 0.5 μM and 0.1 μM). After 18 hours, the cells were lysed with 1× lysis buffer and a western blot was perform, and phosphorylated and total EGFR was detected with anti-EGFR antibodies.

With `CC(C)c1cc(-c2nnc(O)n2-c2ccc3c(ccn3C)c2)c(O)cc1O` [Compound 226, 3-(2,4-di-hydroxy-5-isopropyl-phenyl)-4-(1-methyl-indol-5-yl)-5-hydroxy-[1,2,4] triazole] the IC50 [1] was 4 nM, the IC50 [2] was 4 nM and the “IC50 for cell survival (comparison)” value [3] was “lower IC50 for cell survival than 17AAG, 17DMAG or Gleevec”. For the same molecule, the “average bodyweight gain relative to the start of the study” value ([4]; day 60) was 2.7% (+/−1.1 SEM) and 2.7% (+/1.1 SEM), the “% T/C value” ([4]; nude mice, 8 doses, day 63) was 17% and the “degradation of phosphorylated and total EGFR” value [5] was “induced degradation phosphorylated and total EGFR more potently than 17AAG”.
